Reference: patent US12378247B2, “Mesylate salt of para-topolin, compositions containing said salt and use thereof” (USTAV EXPERIMENTALNI BOTANIKY AV CR, V. V. I., priority 2020, dated 2025)

What was measured:
[1] = test system: Human diploid fibroblast BJ; test: MTT cytotoxicity assay in normal fibroblasts; type: cell-based; details: 72 hours
Experimental: MTT (metabolic tetrazolium toxicity) assay is a standard colorimetric assay for evaluation of cytotoxicity. Mitochondrial dehydrogenase activity converts yellow MTT into violet formazan which is measured by means of spectrometry. Human diploid fibroblast BJ (passage 18-22) were seeded into 96-well plate (5.000 cells per well). After 6 hours cultivation medium (DMEM with 5 g/l glucose, 2 mM glutamine, 100 U/ml penicillin, […] streptomycin, 10% fetal calf serum and sodium bicarbonate) was replaced with the cultivation medium containing test compounds in concentration range of 0-200 μM. Highest concentration was adjusted if the solubility of the compound was limiting. Every concentration was tested in pentaplicate. MTT was added to the cells after 72 hours incubation (final concentration 0.5 mg/ml) and incubation continued for another 3 hours. MTT was solubilised by DMSO and absorbance at 570 nm was measured. Growth inhibition (GI) was estimated using the following equitation: GI=(mean A drug exposed wells-mean Ablank/mean Acontrol wells−mean Ablank)×100%. The GI20 value, the drug concentration causing 20% decrease in mitochondrial dehydrogenase activity, was calculated from the obtained dose response curves.

Rat glioma C6 cells = test: Anti-inflammatory activity: isoproterenol-induced intracellular cAMP synthesis; type: cell-based; details: isoproterenol-induced cAMP, C6 cells
Experimental: The anti-inflammatory activity of para-topolin and para-topolin mesylate was determined; cytokinin kinetin was also evaluated as a control. Rat glioma C6 cells (ATCC No. CCL107) were cultured in a monolayer in chemically defined beser medium containing Ham's F10/minimal essential medium (1:1 v/v), 2 mM L-glutamine, 1% (v/v). Minimum vitamins of essential medium (100×), 1% (v/v) minimum essential amino acids (100×), 100 U/ml penicillin, […] streptomycin and 30 nM sodium selenite. Incubation was performed at 37° C. in a 100% humidified atmosphere. The assays were performed in logarithmic growth phase at a density of 2.5×10^5 cells/cm^2. Intracellular cAMP synthesis was induced by the addition of 5 mM (−)-isoproterenol; at the same time, various concentrations of tested compounds were added at the same time as (−)-isoproterenol. After 30 minutes of incubation, the cellular amount of CAMP was determined by ELISA (cAMP-enzyme immunoassay from Amersham). IC50 values were determined from the […] dose-response curve.

[2] = ORAC (Oxygen Radical Absorbance Capacity), ability to scavenge free radicals; type: biochemical; details: n = 3
Experimental: The ability of the substance to scavenge free radicals in vitro was determined using the ORAC (Oxygen Radical Absorbance Capacity) method. Briefly, 100 μl of fluorescein ([…]) and 25 μl of tested substance solution were pipetted into each well of a 96-well microtiter plate preheated to 37° C. The reaction itself was started by the addition of 25 μL 250 mM AAPH. After shaking for 5 s, the fluorescence (Ex. 485 nm, Em. 510 nm) was read every 3 min for 90 min using an Infinite 200 instrument (TECAN, Switzerland). The area under the curve was used to express the antioxidant capacity relative to trolox, which is used as a standard. […] Such activities are likely to be closely related to the electron-rich C6-hydroxybenzylamino substituent system.

SMILES | Cytotoxicity for Human Diploid Fibroblasts GI20 [1] | Anti-inflammatory activity (in words) (Rat glioma C6 cells) | ORAC Average(TE), Trolox equivalents on equimolar basis [2]
c1coc(CNc2ncnc3nc[nH]c23)c1 [6-furfurylaminopurine (kinetin), 6-furfurylaminopurine] | >167000 nM | inactive | 
OC[C@H]1O[C@@H](n2cnc3c(NCc4ccccc4)ncnc32)[C@H](O)[C@@H]1O [6-(benzylamino)purine riboside] | 1700 nM |  | 
OC[C@H]1O[C@@H](n2cnc3c(NCc4ccco4)ncnc32)[C@H](O)[C@@H]1O [6-furfurylaminopurine riboside] | 2100 nM |  | 
Oc1ccccc1CNc1ncnc2nc[nH]c12 [6-(2-hydroxybenzylamino)purine (oT), 6-(2-hydroxybenzylamino)purine] |  |  | 7.026 TE
Oc1cccc(CNc2ncnc3nc[nH]c23)c1 [6-(3-hydroxybenzylamino)purine (mT), 6-(3-hydroxybenzylamino)purine] |  |  | 4.509 TE
